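A five-concentration, 48-hour dose response in 96-well plates underlies each endpoint, interpolated linearly between surrounding concentrations. GI50: concentration for 50% inhibition of growth. TGI: concentration producing complete growth inhibition.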
The molecules below were run on DU-145 prostate (assay: growth of human tumour cells (NCI), 48 h).
With `CCOC(=O)C1=C(C)N(N)C(=S)NC1c1ccc(C)cc1` (stereo not drawn) the TGI was 12.3 µM.
`Cc1ccc(N(CSc2ccc(Cl)cc2)CSc2ccc(Cl)cc2)cc1` was tested, and the GI50 was 2.57 µM and the TGI was 23 µM.
`Nc1ccncc1/C=C1/C(=O)Nc2ccccc21` showed a GI50 of 44.9 µM and a TGI greater than 100 µM.
`O=c1[nH]c2cc(Cl)ccc2n1C1CCN(CCCC(c2ccc(F)cc2)c2ccc(F)cc2)CC1` showed a GI50 of 1.82 µM and a TGI of 3.32 µM.

Each molecule was assayed on UO-31 renal (assay: growth of human tumour cells (NCI), 48 h).
In the case of `CCOC(=O)C1=C(C)N(N)C(=S)NC1c1ccc(C)cc1` (stereo not drawn), the GI50 is reported as 23.5 µM and the TGI is reported as greater than 100 µM.
For `Cc1ccc(N(CSc2ccc(Cl)cc2)CSc2ccc(Cl)cc2)cc1`, the GI50 was 0.717 µM and the TGI was 2.75 µM.
`Nc1ccncc1/C=C1/C(=O)Nc2ccccc21` was tested, and the GI50 was 18.9 µM and the TGI was greater than 100 µM.
Work on `O=c1[nH]c2cc(Cl)ccc2n1C1CCN(CCCC(c2ccc(F)cc2)c2ccc(F)cc2)CC1` yielded a GI50 of 1 µM and a TGI of 2.38 µM.

The molecules below were run on A498 renal (assay: growth of human tumour cells (NCI), 48 h).
Work on `CCOC(=O)C1=C(C)N(N)C(=S)NC1c1ccc(C)cc1` (stereo not drawn) yielded a GI50 of 11.2 µM and a TGI greater than 100 µM.
Work on `Nc1ccncc1/C=C1/C(=O)Nc2ccccc21` yielded a GI50 of 18.7 µM and a TGI of 52.7 µM.
With `O=c1[nH]c2cc(Cl)ccc2n1C1CCN(CCCC(c2ccc(F)cc2)c2ccc(F)cc2)CC1` the GI50 was 1.34 µM and the TGI was 2.74 µM.

Each molecule was assayed on SF-539 CNS (assay: growth of human tumour cells (NCI), 48 h).
In the case of `Cc1ccc(N(CSc2ccc(Cl)cc2)CSc2ccc(Cl)cc2)cc1`, the GI50 is reported as 1.02 µM and the TGI is reported as 2.59 µM.
For `Nc1ccncc1/C=C1/C(=O)Nc2ccccc21`, the GI50 was 34.6 µM and the TGI was greater than 100 µM.
`O=c1[nH]c2cc(Cl)ccc2n1C1CCN(CCCC(c2ccc(F)cc2)c2ccc(F)cc2)CC1` gave a GI50 of 1.64 µM and a TGI of 3 µM.

Each molecule was assayed on HOP-62 NSCLC (assay: growth of human tumour cells (NCI), 48 h).
Work on `CCOC(=O)C1=C(C)N(N)C(=S)NC1c1ccc(C)cc1` (stereo not drawn) yielded a GI50 greater than 100 µM and a TGI greater than 100 µM.
`Cc1ccc(N(CSc2ccc(Cl)cc2)CSc2ccc(Cl)cc2)cc1` was tested, and the GI50 was 2.71 µM and the TGI was 16.4 µM.
Molecule `Nc1ccncc1/C=C1/C(=O)Nc2ccccc21` has a GI50 of 23.6 µM and a TGI of 81.6 µM.
With `O=c1[nH]c2cc(Cl)ccc2n1C1CCN(CCCC(c2ccc(F)cc2)c2ccc(F)cc2)CC1` the GI50 was 1.55 µM and the TGI was 3.05 µM.

These molecules were tested on HCT-116 colon (assay: growth of human tumour cells (NCI), 48 h).
`CCOC(=O)C1=C(C)N(N)C(=S)NC1c1ccc(C)cc1` (stereo not drawn) gave a GI50 of 65.3 µM and a TGI greater than 100 µM.
With `Cc1ccc(N(CSc2ccc(Cl)cc2)CSc2ccc(Cl)cc2)cc1` the GI50 was 1.52 µM and the TGI was 10.9 µM.
In the case of `Nc1ccncc1/C=C1/C(=O)Nc2ccccc21`, the GI50 is reported as 43.9 µM and the TGI is reported as greater than 100 µM.
In the case of `O=c1[nH]c2cc(Cl)ccc2n1C1CCN(CCCC(c2ccc(F)cc2)c2ccc(F)cc2)CC1`, the GI50 is reported as 1.46 µM and the TGI is reported as 2.87 µM.

The molecules below were run on IGROV1 ovarian (assay: growth of human tumour cells (NCI), 48 h).
`CCOC(=O)C1=C(C)N(N)C(=S)NC1c1ccc(C)cc1` (stereo not drawn) was tested, and the GI50 was 28.2 µM and the TGI was greater than 100 µM.
For `Cc1ccc(N(CSc2ccc(Cl)cc2)CSc2ccc(Cl)cc2)cc1`, the GI50 was 0.481 µM and the TGI was 5.87 µM.
`Nc1ccncc1/C=C1/C(=O)Nc2ccccc21` gave a GI50 of 29 µM and a TGI greater than 100 µM.
`O=c1[nH]c2cc(Cl)ccc2n1C1CCN(CCCC(c2ccc(F)cc2)c2ccc(F)cc2)CC1` gave a GI50 of 1.98 µM and a TGI of 3.87 µM.

The molecules below were run on NCI/ADR-RES ovarian (assay: growth of human tumour cells (NCI), 48 h).
In the case of `CCOC(=O)C1=C(C)N(N)C(=S)NC1c1ccc(C)cc1` (stereo not drawn), the GI50 is reported as 61.9 µM and the TGI is reported as greater than 100 µM.
In the case of `Cc1ccc(N(CSc2ccc(Cl)cc2)CSc2ccc(Cl)cc2)cc1`, the GI50 is reported as 1.38 µM and the TGI is reported as 9.04 µM.
`Nc1ccncc1/C=C1/C(=O)Nc2ccccc21` gave a GI50 of 35.9 µM and a TGI greater than 100 µM.
For `O=c1[nH]c2cc(Cl)ccc2n1C1CCN(CCCC(c2ccc(F)cc2)c2ccc(F)cc2)CC1`, the GI50 was 1.74 µM and the TGI was 3.61 µM.

The molecules below were run on U251 CNS (assay: growth of human tumour cells (NCI), 48 h).
`CCOC(=O)C1=C(C)N(N)C(=S)NC1c1ccc(C)cc1` (stereo not drawn) was tested, and the GI50 was 24.1 µM and the TGI was greater than 100 µM.
`Cc1ccc(N(CSc2ccc(Cl)cc2)CSc2ccc(Cl)cc2)cc1` was tested, and the GI50 was 0.581 µM and the TGI was 11.2 µM.
With `Nc1ccncc1/C=C1/C(=O)Nc2ccccc21` the GI50 was 47.9 µM and the TGI was greater than 100 µM.
Molecule `O=c1[nH]c2cc(Cl)ccc2n1C1CCN(CCCC(c2ccc(F)cc2)c2ccc(F)cc2)CC1` has a GI50 of 1.54 µM and a TGI of 2.87 µM.

What follows are molecules tested on HCC-2998 colon (assay: growth of human tumour cells (NCI), 48 h).
`CCOC(=O)C1=C(C)N(N)C(=S)NC1c1ccc(C)cc1` (stereo not drawn) gave a GI50 of 0.811 µM and a TGI of 27.1 µM.
`Cc1ccc(N(CSc2ccc(Cl)cc2)CSc2ccc(Cl)cc2)cc1` showed a GI50 of 2.57 µM and a TGI of 11.7 µM.
For `Nc1ccncc1/C=C1/C(=O)Nc2ccccc21`, the GI50 was 25.3 µM and the TGI was 59.9 µM.
`O=c1[nH]c2cc(Cl)ccc2n1C1CCN(CCCC(c2ccc(F)cc2)c2ccc(F)cc2)CC1` was tested, and the GI50 was 1.87 µM and the TGI was 3.49 µM.

Each molecule was assayed on BT-549 breast (assay: growth of human tumour cells (NCI), 48 h).
Molecule `CCOC(=O)C1=C(C)N(N)C(=S)NC1c1ccc(C)cc1` (stereo not drawn) has a TGI of 9.16 µM.
For `Cc1ccc(N(CSc2ccc(Cl)cc2)CSc2ccc(Cl)cc2)cc1`, the GI50 was 0.334 µM and the TGI was 1.54 µM.
`Nc1ccncc1/C=C1/C(=O)Nc2ccccc21` gave a GI50 of 40.2 µM and a TGI greater than 100 µM.
Molecule `O=c1[nH]c2cc(Cl)ccc2n1C1CCN(CCCC(c2ccc(F)cc2)c2ccc(F)cc2)CC1` has a GI50 of 1.32 µM and a TGI of 2.92 µM.

The molecules below were run on SK-OV-3 ovarian (assay: growth of human tumour cells (NCI), 48 h).
`Cc1ccc(N(CSc2ccc(Cl)cc2)CSc2ccc(Cl)cc2)cc1` was tested, and the GI50 was 3.29 µM and the TGI was 19.3 µM.
`Nc1ccncc1/C=C1/C(=O)Nc2ccccc21` gave a GI50 of 46.7 µM and a TGI greater than 100 µM.
`O=c1[nH]c2cc(Cl)ccc2n1C1CCN(CCCC(c2ccc(F)cc2)c2ccc(F)cc2)CC1` showed a GI50 of 1.82 µM and a TGI of 3.72 µM.

Each molecule was assayed on CAKI-1 renal (assay: growth of human tumour cells (NCI), 48 h).
Molecule `Cc1ccc(N(CSc2ccc(Cl)cc2)CSc2ccc(Cl)cc2)cc1` has a GI50 of 0.829 µM and a TGI of 8.16 µM.
`Nc1ccncc1/C=C1/C(=O)Nc2ccccc21` showed a GI50 of 30.2 µM and a TGI of 89.7 µM.
`O=c1[nH]c2cc(Cl)ccc2n1C1CCN(CCCC(c2ccc(F)cc2)c2ccc(F)cc2)CC1` showed a GI50 of 0.488 µM and a TGI of 1.97 µM.

The molecules below were run on OVCAR-8 ovarian (assay: growth of human tumour cells (NCI), 48 h).
In the case of `CCOC(=O)C1=C(C)N(N)C(=S)NC1c1ccc(C)cc1` (stereo not drawn), the GI50 is reported as greater than 100 µM and the TGI is reported as greater than 100 µM.
In the case of `Cc1ccc(N(CSc2ccc(Cl)cc2)CSc2ccc(Cl)cc2)cc1`, the GI50 is reported as 1.55 µM and the TGI is reported as greater than 100 µM.
With `Nc1ccncc1/C=C1/C(=O)Nc2ccccc21` the GI50 was 62.5 µM and the TGI was greater than 100 µM.
For `O=c1[nH]c2cc(Cl)ccc2n1C1CCN(CCCC(c2ccc(F)cc2)c2ccc(F)cc2)CC1`, the GI50 was 1.69 µM and the TGI was 3.56 µM.

The molecules below were run on UACC-257 melanoma (assay: growth of human tumour cells (NCI), 48 h).
For `CCOC(=O)C1=C(C)N(N)C(=S)NC1c1ccc(C)cc1` (stereo not drawn), the GI50 was 36.2 µM and the TGI was greater than 100 µM.
Molecule `Cc1ccc(N(CSc2ccc(Cl)cc2)CSc2ccc(Cl)cc2)cc1` has a GI50 of 3.72 µM and a TGI greater than 100 µM.
Work on `Nc1ccncc1/C=C1/C(=O)Nc2ccccc21` yielded a GI50 greater than 100 µM and a TGI greater than 100 µM.
